Results on 12 compounds are retold here after EP4534147A1, “STING ANTAGONIST COMPOUNDS” (Sulis Therapeutics ApS, priority 2023, dated 2025).

The structures appear in SMILES notation.

In one assay the target is T1, STING (Homo sapiens, UniProt Q86WV6).
T1 construct: endogenous in cells; host or cells: human skin fibroblasts
Put plainly: Human FB STING antagonist assay (IFN-a/b release). In kind it is cell-based. The settings on record: Human skin fibroblasts, 2h pre-treatment, 300 nM GSK STING agonist (CAS number: 2138299-34-8) for 20 h, release of IFN-a/b by HEK-Blue IFN-α/β bioassay. How it is done:
STING antagonist activity can be determined by a human fibroblast antagonist assay. For this, human skin fibroblasts are pre-treated for 2h with a serial dilution of the compound, and are then stimulated for 20 hours with 300 nM STING agonist (e.g. from GSK, CAS number: 2138299-34-8). Supernatants are then harvested and assessed for IFN-a/b release, which indicates STING activation. IFN-a/b concentration in the supernatant is determined, e.g. using an IFN-α/β bioassay. IC50 values are calculated using a non-linear regression fitting, variable slope (4 parameters).
Human skin fibroblasts were pre-treated for 2h with a serial dilution of test compound followed by stimulation with mock or 300 nM GSK STING agonist (CAS number: 2138299-34-8). Supernatants were harvested after 20 h of STING agonist stimulation. Release of IFN-a/b was determined using HEK-Blue IFN-α/β bioassay (Invivogen). Cellular viability was assessed using Alamar Blue HS assay. IC50 values were estimated using a non-linear regression fitting, variable slope (4 parameters) in GraphPad Prism 9.3.1.

Assay [1] has as its target C-terminal domain (CTD) of human STING (Homo sapiens, UniProt Q86WV6). Put plainly: STING binding FP assay II (as FP assay I, lower STING concentration). On the set-up: recombinant human STING protein (155-379). The note with it: 7 nM STING in buffer A, 4 nM fluorescein-labelled STING ligand (Probe 1). How it is done:
The interaction between molecules and the C-terminal domain (CTD) of human STING was evaluated using a competition binding assay. In this assay, recombinant human STING protein (155-379) and a STING binding fluorescent probe were employed. Upon binding of the probe to STING, the rotation of the fluorescent probe is slowed due to the larger molecular size of the protein-bound complex. As a result, emitted light retains its plane of polarization, leading to an increase in fluorescence polarization. Molecules competing for the probe binding site displace the probe, which leads to rapid randomization of the polarization plane of the emitted light and a subsequent decrease in measured fluorescence polarization signal. Change in polarization was measured, allowing a comparative evaluation of the binding affinities of different compounds to the target protein.
The assay was performed in 96-well plates (ThermoFisher, cat.# 237108) containing 100 µl : 10 µL test compound in 10% DMSO and buffer A (150 mM NaCl, 50 mM HEPES pH 7.5, 1 mM DTT) + 90 µL prepared master mix solution of: 4 nM fluorescein-labelled STING ligand (Probe 1; synthesis described above) in buffer A + 0.055% Tween-20 (v/v) and 35 nM STING in buffer A. Post mixing, plates were agitated at 600 rpm and incubated for 20 min at room temperature. Subsequent measurements of the fluorescence polarization signal were made on a BioTek Synergy-H1 plate reader, using a polarization filter; excitation: 485/20 nm, emission: 528/20 nm) with a gain-setting of 75. IC50 values were determined using a standard non-linear regression four-parameter curve fit in Graphpad Prism.
The procedure for STING binding FP assay II is the same as described for STING binding FP assay I, except for a lower STING concentration. In STING binding FP assay II, a concentration of 7 nM STING in buffer A was used.

C-terminal domain (CTD) of human STING, sequence (Q86WV6 155-379): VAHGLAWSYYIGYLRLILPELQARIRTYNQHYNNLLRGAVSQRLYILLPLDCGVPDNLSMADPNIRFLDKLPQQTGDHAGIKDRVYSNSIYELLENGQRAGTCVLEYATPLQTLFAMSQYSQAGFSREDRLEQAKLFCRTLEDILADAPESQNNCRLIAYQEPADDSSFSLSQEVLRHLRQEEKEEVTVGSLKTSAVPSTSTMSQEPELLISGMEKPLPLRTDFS
T1 sequence (Q86WV6 whole entry): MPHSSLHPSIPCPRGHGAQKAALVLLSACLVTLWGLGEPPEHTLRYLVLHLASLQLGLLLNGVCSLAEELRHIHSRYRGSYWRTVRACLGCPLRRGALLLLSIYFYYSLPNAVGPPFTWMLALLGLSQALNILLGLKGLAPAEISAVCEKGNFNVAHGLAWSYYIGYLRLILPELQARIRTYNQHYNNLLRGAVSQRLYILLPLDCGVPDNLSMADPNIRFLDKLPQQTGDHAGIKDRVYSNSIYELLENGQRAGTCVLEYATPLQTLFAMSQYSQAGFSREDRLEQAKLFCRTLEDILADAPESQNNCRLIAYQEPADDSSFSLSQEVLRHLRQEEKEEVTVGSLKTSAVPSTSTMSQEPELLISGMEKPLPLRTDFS

In general, IC50 refers to the concentration that gives 50% inhibition. As for `CCOC(=O)COC(CCn1c(NC(=O)c2cc(C)nn2CC)nc2cc(C(N)=O)ccc21)CCn1c(NC(=O)c2cc(C)nn2CC)nc2cc(C(N)=O)ccc21` [Example 1, Ethyl {3-[5-carbamoyl-2-(1-ethyl-3-methyl-5-pyrazolylcarbonylamino)-1H-1,3-benzimidazol-1-yl]-1-{2-[5-carbamoyl-2-(1-ethyl-3-methyl-5-pyrazolylcarbonylamino)-1H-1,3-benzimidazol-1-yl]ethyl}propoxy}acetate], the IC50 on STING turned out to be 3200 nM.
Turning to `CCn1nc(C)cc1C(=O)N=c1n(C)c2cc(C(N)=O)ccc2n1CCC(CCn1c(=NC(=O)c2cc(C)nn2CC)n(C)c2cc(C(N)=O)ccc21)OCC(=O)N1CCN(C(C)=O)CC1` (stereo not drawn) [Example 12, 1-{3-[2-(4-Acetyl-1-piperazinyl)-2-oxoethoxy]-5-{5-carbamoyl-2-[(1-ethyl-3-methyl-5-pyrazolyl)carbonylimino]-3-methyl-2,3-dihydro-1H-1,3-benzimidazol-1-yl}pentyl}-2-[(1-ethyl-3-methyl-5-pyrazolyl)carbonylimino]-3-methyl-2,3-dihydro-1H-1,3-benzimidazole-5-carboxamide], the IC50 in assay [1] is 1.7 nM; on STING, 9800 nM.
For `CCn1nc(C)cc1C(=O)N=c1n(C)c2cc(C(N)=O)ccc2n1CCC(CCn1c(=NC(=O)c2cc(C)nn2CC)n(C)c2cc(C(N)=O)ccc21)OCC(=O)N(CCOC)CCOC` (stereo not drawn) [Example 13, 1-(3-{[Bis(2-methoxyethyl)carbamoyl]methoxy}-5-{5-carbamoyl-2-[(1-ethyl-3-methyl-5-pyrazolyl)carbonylimino]-3-methyl-2,3-dihydro-1H-1,3-benzimidazol-1-yl}pentyl)-2-[(1-ethyl-3-methyl-5-pyrazolyl)carbonylimino]-3-methyl-2,3-dihydro-1H-1,3-benzimidazole-5-carboxamide], in that order: 2 nM and 7800 nM.
As to `CCn1nc(C)cc1C(=O)N=c1n(C)c2cc(C(N)=O)ccc2n1CCC(CCn1c(=NC(=O)c2cc(C)nn2CC)n(C)c2cc(C(N)=O)ccc21)OCC(=O)N(C(C)C)C(C)C` (stereo not drawn) [Example 21, 1-(3-{[Bis(isopropyl)carbamoyl]methoxy}-5-{5-carbamoyl-2-[(1-ethyl-3-methyl-5-pyrazolyl)carbonylimino]-3-methyl-2,3-dihydro-1H-1,3-benzimidazol-1-yl}pentyl)-2-[(1-ethyl-3-methyl-5-pyrazolyl)carbonylimino]-3-methyl-2,3-dihydro-1H-1,3-benzimidazole-5-carboxamide], in assay [1], the IC50 was 4.8 nM.
Take `CCn1nc(C)cc1C(=O)N=c1n(C)c2cc(C(N)=O)ccc2n1CCC(CCn1c(=NC(=O)c2cc(C)nn2CC)n(C)c2cc(C(N)=O)ccc21)OCC(=O)Nc1cc(C)[nH]n1` (stereo not drawn) [Example 22, 1-{3-[(N-5-Methyl-3-pyrazolylcarbamoyl)methoxy]-5-{5-carbamoyl-2-[(1-ethyl-3-methyl-5-pyrazolyl)carbonylimino]-3-methyl-2,3-dihydro-1H-1,3-benzimidazol-1-yl}pentyl}-2-[(1-ethyl-3-methyl-5-pyrazolyl)carbonylimino]-3-methyl-2,3-dihydro-1H-1,3-benzimidazole-5-carboxamide]: the values for the IC50 (in assay [1]; on STING) were 12.8 nM and 6000 nM, respectively.
For the compound `CCn1nc(C)cc1C(=O)N=c1n(C)c2cc(C(N)=O)ccc2n1CCC(CCn1c(=NC(=O)c2cc(C)nn2CC)n(C)c2cc(C(N)=O)ccc21)OCC(=O)n1nc(N)cc1C` (stereo not drawn) [Example 23, 1-{3-[2-(3-Amino-5-methyl-1-pyrazolyl)-2-oxoethoxy]-5-{5-carbamoyl-2-[(1-ethyl-3-methyl-5-pyrazolyl)carbonylimino]-3-methyl-2,3-dihydro-1H-1,3-benzimidazol-1-yl}pentyl}-2-[(1-ethyl-3-methyl-5-pyrazolyl)carbonylimino]-3-methyl-2,3-dihydro-1H-1,3-benzimidazole-5-carboxamide], the IC50 in assay [1] stood at 6.3 nM.
`CCn1nc(C)cc1C(=O)N=c1n(C)c2cc(C(N)=O)ccc2n1CCC(CCn1c(=NC(=O)c2cc(C)nn2CC)n(C)c2cc(C(N)=O)ccc21)OCC(=O)n1nc(C)cc1N` (stereo not drawn) [Example 24, 1-{3-[2-(5-Amino-3-methyl-1-pyrazolyl)-2-oxoethoxy]-5-{5-carbamoyl-2-[(1-ethyl-3-methyl-5-pyrazolyl)carbonylimino]-3-methyl-2,3-dihydro-1H-1,3-benzimidazol-1-yl}pentyl}-2-[(1-ethyl-3-methyl-5-pyrazolyl)carbonylimino]-3-methyl-2,3-dihydro-1H-1,3-benzimidazole-5-carboxamide]: in assay [1], the half-maximal inhibitory concentration (IC50) came out at 4.8 nM.
With `CCn1nc(C)cc1C(=O)N=c1n(C)c2cc(C(N)=O)ccc2n1CCC(CCn1c(=NC(=O)c2cc(C)nn2CC)n(C)c2cc(C(N)=O)ccc21)OCC(=O)N1CCC[C@H]1c1ccccc1` (stereo partly drawn) [Example 25, 1-(3-{2-[(S)-2-Phenyl-1-pyrrolidinyl]-2-oxoethoxy}-5-{5-carbamoyl-2-[(1-ethyl-3-methyl-5-pyrazolyl)carbonylimino]-3-methyl-2,3-dihydro-1H-1,3-benzimidazol-1-yl}pentyl)-2-[(1-ethyl-3-methyl-5-pyrazolyl)carbonylimino]-3-methyl-2,3-dihydro-1H-1,3-benzimidazole-5-carboxamide], the IC50 in assay [1] was found to be 4.6 nM.
On to `CCn1nc(C)cc1C(=O)N=c1n(C)c2cc(C(N)=O)ccc2n1CCC(CCn1c(=NC(=O)c2cc(C)nn2CC)n(C)c2cc(C(N)=O)ccc21)OCC(=O)N1CCC[C@H]1C(=O)N1CCc2cc(OC)ccc2C1` (stereo partly drawn) [Example 26, 1-[3-(2-{(S)-2-[(6-Methoxy-1,2,3,4-tetrahydro-2-isoquinolyl)carbonyl]-1-pyrrolidinyl}-2-oxoethoxy)-5-{5-carbamoyl-2-[(1-ethyl-3-methyl-5-pyrazolyl)carbonylimino]-3-methyl-2,3-dihydro-1H-1,3-benzimidazol-1-yl}pentyl]-2-[(1-ethyl-3-methyl-5-pyrazolyl)carbonylimino]-3-methyl-2,3-dihydro-1H-1,3-benzimidazole-5-carboxamide], for which the IC50 turned out to be 3.5 nM in assay [1] and 1400 nM on STING.
Take `CCn1nc(C)cc1C(=O)N=c1n(C)c2cc(C(N)=O)ccc2n1CCC(CCn1c(=NC(=O)c2cc(C)nn2CC)n(C)c2cc(C(N)=O)ccc21)OCC(=O)N1CCC[C@@H]1c1cc(F)ccc1F` (stereo partly drawn) [Example 27, 1-(3-{2-[(R)-2-(2,5-Difluorophenyl)-1-pyrrolidinyl]-2-oxoethoxy}-5-{5-carbamoyl-2-[(1-ethyl-3-methyl-5-pyrazolyl)carbonylimino]-3-methyl-2,3-dihydro-1H-1,3-benzimidazol-1-yl}pentyl)-2-[(1-ethyl-3-methyl-5-pyrazolyl)carbonylimino]-3-methyl-2,3-dihydro-1H-1,3-benzimidazole-5-carboxamide]: the IC50 in assay [1] was 3.7 nM.
Take `CCn1nc(C)cc1C(=O)N=c1n(C)c2cc(C(N)=O)ccc2n1CCC(CCn1c(=NC(=O)c2cc(C)nn2CC)n(C)c2cc(C(N)=O)ccc21)OCC(=O)N1CCC[C@H]1c1nnn[nH]1` (stereo partly drawn) [Example 28, 1-(3-{2-[(S)-2-(1H-Tetrazol-5-yl)-1-pyrrolidinyl]-2-oxoethoxy}-5-{5-carbamoyl-2-[(1-ethyl-3-methyl-5-pyrazolyl)carbonylimino]-3-methyl-2,3-dihydro-1H-1,3-benzimidazol-1-yl}pentyl)-2-[(1-ethyl-3-methyl-5-pyrazolyl)carbonylimino]-3-methyl-2,3-dihydro-1H-1,3-benzimidazole-5-carboxamide]: the figures for the IC50 (in assay [1]; at STING) were 8.4 nM and 3900 nM, respectively.
For the compound `CCNC(=O)COC(CCn1c(=NC(=O)c2cc(C)nn2CC)n(C)c2cc(C(N)=O)ccc21)CCn1c(=NC(=O)c2cc(C)nn2CC)n(C)c2cc(C(N)=O)ccc21` (stereo not drawn) [Example 29, 1-{3-[(N-Ethylcarbamoyl)methoxy]-5-{5-carbamoyl-2-[(1-ethyl-3-methyl-5-pyrazolyl)carbonylimino]-3-methyl-2,3-dihydro-1H-1,3-benzimidazol-1-yl}pentyl}-2-[(1-ethyl-3-methyl-5-pyrazolyl)carbonylimino]-3-methyl-2,3-dihydro-1H-1,3-benzimidazole-5-carboxamide], the results for the IC50 (in assay [1]; at STING) were 7.1 nM and 5200 nM, respectively.
